The test system of one test is Haemonchus contortus. The test can be described thus: Efficacy against Haemonchus contortus in jirds. The class given is in vivo, jirds (Meriones unguiculatus). Conditions: 72 h, read-out: % Reduction in H. The method, then: Anthelmintic effects of compounds of this invention were tested in vivo using Haemonchus contuortus in jirds (Meriones unguiculatus). The jirds were orally infected with approximately 750-3,000 third-stage larvae of Haemonchus contortus. Ten days after infection, the jirds in the treatment groups were treated once orally or subcutaneously at a dose of 2, 10, and/or 50 mg per kg bodyweight. Three days after treatment, the jirds were necropsied, and the larvae burden in the stomach is determined. The efficacy is defined as the reduction of the mean larvae count in the jirds of the treatment groups in comparison to the infected jirds in the untreated negative control group.

For test [1], the system named is A. galli (intestinal roundworm of chicken) larval stage 3; O. dentatum (nodular worm of swine) larval stages 3 and 4. As to the kind of experiment: Activity against Ascaridia galli and Oesophagostomum dentatum larvae in vitro (minimum effective concentration). In kind it is cell-based.
[2] abbreviates: read-out: MEC (minimum effective concentration) against one or more of the tested nematodes, in vitro, one or more of A. galli L3, O. dentatum L3, L4, threshold 1 μM.
Where [3] appears, read: read-out: MEC (minimum effective concentration) against one or more of the tested nematodes, in vitro, one or more of A. galli L3, O. dentatum L3, L4, threshold 7 μM.
Setting [4] is: read-out: MEC (minimum effective concentration) against two or more of the tested nematodes, in vitro, two or more of A. galli L3, O. dentatum L3, L4, threshold 1 μM.

Where two headings read alike, the source gives them in different places.

Consider `CC(C)(C)c1ccc(N2CCN(CCC(=O)N3CCC(Nc4ccc([N+](=O)[O-])c(C(F)(F)F)c4)CC3)CC2)cc1` [Example 35, 3-[4-(4-tert-butyl-phenyl)-piperazin-1-yl]-1-[4-(4-nitro-3-trifluoromethyl-phenylamino)-piperidin-1-yl]-propan-1-one], for which the results for the inhibition in vivo at 50 mg/kg with Haemonchus contortus (po) and with Haemonchus contortus (sc) were 45% and 93%, respectively. The values for the minimal effective concentration in test [1] (setting [2]), in test [1] (setting [3]) and in test [1] (setting [4]) were below 1 µM, below 7 µM and below 1 µM, respectively.
Regarding `COc1cc(NC2CCN(C(=O)CCN3CCN(c4ccc(OCc5ccc(C(F)(F)F)cc5)cc4)CC3)CC2)ccc1[N+](=O)[O-]` [Example 40, 1-[4-(3-methoxy-4-nitro-phenylamino)-piperidin-1-yl]-3-{4-[4-(4-trifluoromethyl-benzyloxy)-phenyl]-piperazin-1-yl}-propan-1-one], the inhibition in vivo at 50 mg/kg amounted to 0% in the test with Haemonchus contortus (po) and 74% with Haemonchus contortus (sc). The minimal effective concentration is below 1 µM in test [1] (setting [2]), below 7 µM in test [1] (setting [3]) and below 1 µM in test [1] (setting [4]).
Regarding `O=C(CCCN1CCN(c2ccc(C(F)(F)F)cc2)CC1)N1CCC(Nc2ccc(C(F)(F)F)cn2)CC1` [Example 51, 4-[4-(4-trifluoromethyl-phenyl)-piperazin-1-yl]-1-[4-(5-trifluoromethyl-pyridin-2-ylamino)-piperidin-1-yl]-butan-1-one], the inhibition in vivo at 50 mg/kg is 86% in the test on Haemonchus contortus (po) and 63% in the test with Haemonchus contortus (sc). Further, the minimal effective concentration in test [1] (setting [2]) is below 1 µM; in test [1] (setting [3]), below 7 µM; in test [1] (setting [4]), below 1 µM.
On to `O=C(CCCN1CCN(c2ccc(C(F)(F)F)cc2)CC1)N1CCC(Nc2ccc(OC(F)(F)F)cc2)CC1` [Example 54, 1-[4-(4-trifluoromethoxy-phenylamino)-piperidin-1-yl]-4-[4-(4-trifluoromethyl-phenyl)-piperazin-1-yl]-butan-1-one], for which the inhibition in vivo at 50 mg/kg with Haemonchus contortus (po) is 95%; with Haemonchus contortus (sc), 58%. The minimal effective concentration in test [1] (setting [2]) is below 1 µM; in test [1] (setting [3]), below 7 µM; in test [1] (setting [4]), below 1 µM.
`O=C(CCN1CCC(OCc2ccc(C(F)(F)F)cc2)CC1)N1CCC(Nc2ccc([N+](=O)[O-])c(C(F)(F)F)c2)CC1` [Example 57, 1-[4-(4-nitro-3-trifluoromethyl-phenylamino)-piperidin-1-yl]-3-[4-(4-trifluoromethyl-benzyloxy)-piperidin-1-yl]-propan-1-one]: the inhibition in vivo at 50 mg/kg in the test on Haemonchus contortus (po) was 85%; in the test with Haemonchus contortus (sc), 84%. The minimal effective concentration was below 1 µM in test [1] (setting [2]), below 7 µM in test [1] (setting [3]) and below 1 µM in test [1] (setting [4]).
As to `CC(CN1CCN(c2ccc(Cl)cc2)CC1)C(=O)N1CCC(Nc2ccc([N+](=O)[O-])c(C(F)(F)F)c2)CC1` (stereo not drawn) [Example 61, 3-[4-(4-chloro-phenyl)-piperazin-1-yl]-2-methyl-1-[4-(4-nitro-3-trifluoromethyl-phenylamino)-piperidin-1-yl]-propan-1-one], the inhibition in vivo at 50 mg/kg in the test with Haemonchus contortus (po) and with Haemonchus contortus (sc) was 100% each time. Further, the minimal effective concentration in test [1] (setting [2]) is below 1 µM; in test [1] (setting [3]), below 7 µM; in test [1] (setting [4]), below 1 µM.

Values taken from patent publication US9096524B2, “Anthelmintic agents and their use” (Intervet International B.V., priority 2009, dated 2015).
